Publication PMC5913603, “Structure–activity relationships of strigolactones via a novel, quantitative in planta bioassay” (Journal of Experimental Botany, 2018)
“Also recorded” adds a separate entry of the source.

Legend:
[1] = molecular target: T1, AtD14 fused to firefly luciferase (D14::LUC) (Arabidopsis thaliana, UniProt Q9SQR3); assay: Luminometer (luciferase) assay: D14::LUC degradation in transgenic Arabidopsis seedlings; format: in vivo; conditions: for D14 degradation in the luciferase assay: 0.01–100 μM range, racemic mixtures
T1 construct: a pDONOR207 carrying the D14 promoter fused to the D14 CDS; expressed in transfected cells
T1 sequence (Q9SQR3 1-267): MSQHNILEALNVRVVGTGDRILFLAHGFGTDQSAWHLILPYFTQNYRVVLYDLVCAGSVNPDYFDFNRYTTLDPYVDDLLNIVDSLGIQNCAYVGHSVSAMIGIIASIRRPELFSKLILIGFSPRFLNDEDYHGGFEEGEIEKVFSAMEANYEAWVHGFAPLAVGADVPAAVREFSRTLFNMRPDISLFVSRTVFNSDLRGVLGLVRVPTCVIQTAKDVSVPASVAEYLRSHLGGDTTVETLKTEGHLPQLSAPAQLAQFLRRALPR
Procedure: A binary D14p::D14::LUC vector was obtained by LR-recombination (Invitrogen) of a pDONOR207 carrying the D14 promoter fused to the D14 CDS ([Chevalier et al., 2014]) in pGWB435 ([Nakagawa et al., 2007]). Transgenic D14::D14::LUC Arabidopsis plants were generated by agroinfiltration of Col-0 plants using the floral dip method ([Clough and Bent, 1998]). Seeds were surface-sterilized with an 8% aqueous solution of commercial bleach in distilled water for 5 min and rinsed five times with sterile distilled water. Sterile seeds were plated on MS medium (pH 5.8) ([Murashige and Skoog, 1962]) without sucrose solidified with 1.2% Agar, and kept at 4 °C for 3 d (stratification). Seeds were then incubated for 7 d in a growth chamber at 25 °C and a photoperiod of 16 h light/8 h dark. SL analogues and mimics (Figs 1, 2) were accurately weighed and dissolved in acetone at 10^–2 M. Five different concentrations (10^–4 M, 10^–5 M, 10^–6 M, 10^–7 M, 10^–8 M) were prepared by 1:10 serial dilutions in liquid MS medium, together with blank controls containing corresponding water and acetone volumes in the medium. D-Luciferin (potassium salt) stock was prepared at 25 mg ml^–1 in DMSO, aliquoted and stored at –80 °C until use; all other solutions were prepared just before the assay. Using tweezers, 7-d-old Arabidopsis seedlings were placed in a 96-well microtiter plate with their cotyledons facing up (one seedling per well, in 170 µl of liquid MS medium), and 15 µl of luciferin (0.125 mg ml^–1, diluted 1:200 in MS from stock) was added to each well, corresponding to 1.875 µg. The plate was covered with a transparent film with a hole poked above each well to allow for gas exchange. Measurements were taken every 15 min in a multimode reader (LB942 Tristar2 S, Berthold Technologies) for the following 24 h; the signal was allowed to stabilize for 2–3 h in the light before treatments were started by adding 15 µl per well of the different SLs in MS medium, thus reaching a final volume in each well of 200 µl and 9.4 µg ml^– of luciferin. Appropriate blank controls were added as well. Each treatment was applied to a minimum of 16 wells (seedlings), each of which was measured individually over time. The percentage efficacy of each compound molecule was calculated 6 h after treatment as a function of the decrease in D14::LUC-emitted luminescence with respect to (+)-GR24 1 µM (i.e. GR24^5DS), assuming that the latter, minus the drift of the corresponding blank control, had 100% efficacy. For calibration purposes, SL analogues that had already been characterized, namely (±)-ST23b, (±)-EGO10, and (±)-EDOT ([Prandi et al., 2011]), were tested across the same concentration range, along with (±)-strigol (Chiralix, NL). The half maximal-effective concentration (EC50) for (+)-GR24 was calculated by linear regression fitting of the data (n=5, with at least three individual seedlings and values being pooled for each replicate) at the different concentrations, minus the values for acetone-treated samples (negative controls) and normalized in relation to (+)-GR24 0.01 μM, which was set to 0%. Confidence intervals at 95% were used to express errors of the means.
D14 is a target for proteasome-dependent destruction upon interaction with its ligand(s), which explains why fluorescence of D14::GFP fusion proteins is quenched upon SL treatment in transgenic Arabidopsis ([Chevalier et al., 2014]). We exploited this molecular network to implement a quantitative activity assay that inversely correlated luminescence to perception of SL-related molecules in transgenic Arabidopsis expressing D14::LUC under the control of the D14 endogenous promoter. […] We then used the assay to test various SLs in the same range, namely strigol as an example of natural SLs; ST23b, EGO10, and EDOT (Fig. 1, all used as rac mixtures) as examples of active SL analogues; and the new set of SL-D-lactams rac-1–9 (Fig. 2).
Fig. 4. Luciferase assay. […]

[2] = molecular target: T1, AtD14 fused to firefly luciferase (D14::LUC); assay: Luminometer-based competition assay between rac-9 and (+)-GR24; format: in vivo; conditions: rac-9 constant at 10 μM, (+)-GR24 0.01–100 μM
Procedure: The efficacy values in these samples in terms of luminescence quenching were compared with those of samples receiving (+)-GR24 alone (positive control). […] Luciferase competition test between rac-9 and (+)-GR24. (A) Efficacy values for (+)-GR24 across a range of concentrations, normalized to the value at 1 μM, which was set to 100%. (B) Efficacy values for (+)-GR24 across the same range of concentrations as in (A), but in the presence of rac-9 at 10 μM. Data are means (±SD) of n=5 replicates, where each replicate consisted of at least three pooled individual seedlings and readings.

| Compound | D14 degradation in the luciferase assay [1] | Activity in the luciferase assay at 10 μM ([1]; 10 μM) | Activity in the luciferase assay at 100 μM ([1]; 100 μM) | Antagonism of (+)-GR24 [2] |
| --- | --- | --- | --- | --- |
| CC1=C[C@H](O/C=C2/C(=O)O[C@@H]3c4ccccc4C[C@H]23)NC1=O (racemic) [rac-3] | almost inactive | – | – | – |
| CC1=C[C@H](O/C=C2/C(=O)O[C@H]3c4ccccc4C[C@@H]23)NC1=O (racemic) [rac-4] | weak activity | – | – | – |
| CC1=CC(C2Cc3c(n(C)c4ccccc34)C2=O)NC1=O (racemic) [rac-9] | substantially inactive | inactive | partial agonist | no antagonistic behaviour; also recorded: did not possess antagonistic activity |
